# Assay results as given in ChEMBL document CHEMBL6074641, “Polypharmacological Drug Design Guided by Integrating Phenotypic and Restricted Fragment Docking Strategies” (J Med Chem, 2024).
# Calls of active or inactive are those of the source. The calls are words filed in the database; no cut-off is given here.
# Legend:
# [1] = biological target: Cytochrome P450 2D6 (Homo sapiens, UniProt P10635); experiment: Inhibition of CYP2D6 (unknown origin) using dextromethorphan as substrate incubated for 10 mins in presence of NADPH by LC-MS/MS analysis; format: ADME
# [2] = tested on: BV-2; experiment: Anti-necroptosis activity in mouse BV-2 cells at 10 uM preincubated with LPS for 11 hrs followed by compound addition for 1 hr and exposed to zVAD-fmk for another 24 hrs by Cellcounting-Lite 2.0 luminescent cell viability assay; format: functional, cell-based; conditions: time 25.0 hrs
# [3] = tested on: Mus musculus; experiment: Anti-alzheimer activity against 5 month old APP/PS1 transgenic mouse model assessed as […] at 2 mg/kg, po administered 4 times per week for 4 weeks; format: functional, organism-based
# [4] = tested on: Mus musculus; experiment: Anti-alzheimer activity against 5 month old APP/PS1 transgenic mouse model assessed as […] at 10 mg/kg, po administered 4 times per week for 4 weeks measured after 2 days; format: functional, organism-based; conditions: time 30.0 day
# [5] = tested on: Microglia; experiment: Anti-necroptosis activity in LPS/zVAD stimulated mouse primary microglia overexpressed with RIPK1 assessed as reversal of severe membrane disruption by TEM analysis; format: functional, cell-based
# [6] = biological target: Receptor-interacting serine/threonine-protein kinase 1 (Mus musculus) (UniProt Q60855); experiment: Inhibition of RIPK1 activation in mouse BV-2 cells by Western blotting analysis; format: cell-based; conditions: dose 4-100 nM
# [7] = tested on: Mus musculus; experiment: Anti-alzheimer activity against 8 month old 3xTg mouse model assessed as improved learning ability at 2 to 10 mg/kg, po administered 4 times per week for 4 weeks; format: functional, organism-based; conditions: dose 2-10 mg/kg
# [8] = tested on: Microglia; experiment: Anti-necroptosis activity in LPS/zVAD stimulated mouse primary microglia overexpressed with RIPK1 assessed as reversal of translucent cytoplasm by TEM analysis; format: functional, cell-based
# [9] = biological target: Cytochrome P450 2B6 (Homo sapiens, UniProt P20813); experiment: Inhibition of CYP2B6 (unknown origin) incubated for 10 mins in presence of NADPH by LC-MS/MS analysis; format: ADME
# [10] = tested on: Mus musculus; experiment: Anti-alzheimer activity against 8 month old 3xTg mouse model assessed as increase in searching frequency towards annulus at 10 mg/kg, po administered 4 times per week for 4 weeks; format: functional, organism-based
# [11] = biological target: T1, Receptor-interacting serine/threonine-protein kinase 1 (Homo sapiens) (UniProt Q13546); experiment: Inhibition of RIPK1 (unknown origin) at 1 uM
# T1 sequence (whole entry): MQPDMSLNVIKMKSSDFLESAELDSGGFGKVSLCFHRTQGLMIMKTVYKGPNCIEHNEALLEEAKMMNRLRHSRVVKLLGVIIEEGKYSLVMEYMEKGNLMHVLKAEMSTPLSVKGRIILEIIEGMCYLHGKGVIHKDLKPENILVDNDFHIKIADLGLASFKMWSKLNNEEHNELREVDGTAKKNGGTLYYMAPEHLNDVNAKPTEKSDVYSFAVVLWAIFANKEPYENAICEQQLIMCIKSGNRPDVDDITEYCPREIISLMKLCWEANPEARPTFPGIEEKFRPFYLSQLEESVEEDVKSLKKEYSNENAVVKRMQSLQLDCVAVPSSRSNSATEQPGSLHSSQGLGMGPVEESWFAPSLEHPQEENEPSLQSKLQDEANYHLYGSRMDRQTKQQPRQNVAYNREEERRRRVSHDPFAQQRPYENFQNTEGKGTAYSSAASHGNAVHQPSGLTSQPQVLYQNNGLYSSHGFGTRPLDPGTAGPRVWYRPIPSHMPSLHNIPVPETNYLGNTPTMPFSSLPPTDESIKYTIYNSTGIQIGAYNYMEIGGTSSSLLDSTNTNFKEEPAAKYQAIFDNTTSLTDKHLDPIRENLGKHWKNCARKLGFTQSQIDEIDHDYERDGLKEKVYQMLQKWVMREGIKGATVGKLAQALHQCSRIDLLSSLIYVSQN
# [12] = Metabolic stability in human liver microsomes assessed as clearance at 1 uM measured upto 60 mins in presence of NADPH and UDPGA by LC-MS/MS analysis; format: ADME, Microsome; conditions: 1 h
# [13] = tested on: BV-2; experiment: Anti-inflammatory activity against LPS/zVAD treated mouse BV-2 cells assessed as decrease in IL-1beta release at 100 nM by ELISA; format: functional, cell-based
# [14] = tested on: Mus musculus; experiment: Anti-alzheimer activity in 8 month old 3xTg mouse model assessed as reversal of transcriptomic changes in Pttg1 at 10 mg/kg, po; format: functional, organism-based
# [15] = tested on: BV-2; experiment: Cytotoxicity against mouse BV-2 cells at 10 uM; format: toxicity, cell-based; conditions: bv-2, 10 µM
# [16] = tested on: Microglia; experiment: Anti-necroptosis activity in LPS/zVAD stimulated mouse primary microglia overexpressed with MAP4K4 assessed as reversal of translucent cytoplasm by TEM analysis; format: functional, cell-based
# [17] = tested on: Microglia; experiment: Anti-necroptosis activity in LPS/zVAD stimulated mouse primary microglia overexpressed with MAP4K4 assessed as reversal of severe membrane disruption by TEM analysis; format: functional, cell-based
# [18] = tested on: Mus musculus; experiment: Anti-alzheimer activity against 8 month old 3xTg mouse model assessed as increase in beta-III tubulin expression at 10 mg/kg, po; format: functional, organism-based
# [19] = biological target: Cytochrome P450 3A5 (Homo sapiens, UniProt P20815); experiment: Inhibition of CYP3A5 (unknown origin) using midazolam as substrate incubated for 10 mins in presence of NADPH by LC-MS/MS analysis; format: ADME
# [20] = Half-life in C57BL/6 mouse plasma at 10 mg/kg, po measured upto 24 hrs by LC-MS/MS analysis; format: ADME, organism-based
# [21] = Unbound plasma protein binding in human incubated for 24 hrs by HPLC based equilibrium dialysis method; format: ADME, cell-free
# [22] = biological target: Voltage-gated inwardly rectifying potassium channel KCNH2 (Homo sapiens, UniProt Q12809); experiment: Inhibition of human ERG expressed in CHO cells by Qpatch clamp method; format: toxicity, cell-based
# [23] = Metabolic stability in human liver microsomes assessed as half-life at 1 uM measured upto 60 mins in presence of NADPH and UDPGA by LC-MS/MS analysis; format: ADME, Microsome
# [24] = tested on: Mus musculus; experiment: Anti-alzheimer activity against 5 month old APP/PS1 transgenic mouse model assessed as improved spatial preference towards annulus at 10 mg/kg, po administered 4 times per week for 4 weeks; format: functional, organism-based
# [25] = tested on: Microglia; experiment: Anti-necroptosis activity in LPS/zVAD stimulated mouse primary microglia assessed as reversal of mitochondrial swelling by TEM analysis; format: functional, cell-based
# [26] = tested on: Mus musculus; experiment: Downregulation of ALK phosphorylation in 3xTg mouse hippocampus at 2 to 10 mg/kg, po by immunohistochemistry analysis; format: functional, organism-based; conditions: dose 2-10 mg/kg
# [27] = biological target: Cytochrome P450 2C19 (Homo sapiens, UniProt P33261); experiment: Inhibition of CYP2C19 (unknown origin) using S-mephenytoin as substrate incubated for 10 mins in presence of NADPH by LC-MS/MS analysis; format: ADME
# [28] = tested on: Microglia; experiment: Anti-necroptosis activity in LPS/zVAD stimulated mouse primary microglia overexpressed with ALK assessed as reversal of mitochondrial swelling by TEM analysis; format: functional, cell-based
# [29] = tested on: Microglia; experiment: Anti-necroptosis activity in LPS/zVAD stimulated mouse primary microglia overexpressed with MAP4K4 assessed as reversal of mitochondrial swelling by TEM analysis; format: functional, cell-based
# [30] = biological target: Cytochrome P450 1A2 (Homo sapiens, UniProt P05177); experiment: Inhibition of CYP1A2 (unknown origin) using phenacetin as substrate incubated for 10 mins in presence of NADPH by LC-MS/MS analysis; format: ADME
# Chain of Cytochrome P450 1A2 (P05177 whole entry): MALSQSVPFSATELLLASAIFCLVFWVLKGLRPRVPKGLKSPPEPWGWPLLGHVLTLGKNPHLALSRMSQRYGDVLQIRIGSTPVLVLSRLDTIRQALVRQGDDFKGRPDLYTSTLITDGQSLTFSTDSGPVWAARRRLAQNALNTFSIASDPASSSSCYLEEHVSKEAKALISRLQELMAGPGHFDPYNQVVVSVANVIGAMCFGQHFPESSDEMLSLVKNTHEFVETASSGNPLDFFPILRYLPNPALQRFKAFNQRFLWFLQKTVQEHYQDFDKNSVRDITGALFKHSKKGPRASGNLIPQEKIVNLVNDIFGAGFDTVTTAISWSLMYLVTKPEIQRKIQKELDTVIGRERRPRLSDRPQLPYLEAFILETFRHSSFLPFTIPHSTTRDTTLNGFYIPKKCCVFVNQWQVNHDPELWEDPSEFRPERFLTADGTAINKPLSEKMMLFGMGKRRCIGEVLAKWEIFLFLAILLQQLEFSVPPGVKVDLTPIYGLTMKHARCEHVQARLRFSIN
# Chain of Voltage-gated inwardly rectifying potassium channel KCNH2 (Q12809 whole entry): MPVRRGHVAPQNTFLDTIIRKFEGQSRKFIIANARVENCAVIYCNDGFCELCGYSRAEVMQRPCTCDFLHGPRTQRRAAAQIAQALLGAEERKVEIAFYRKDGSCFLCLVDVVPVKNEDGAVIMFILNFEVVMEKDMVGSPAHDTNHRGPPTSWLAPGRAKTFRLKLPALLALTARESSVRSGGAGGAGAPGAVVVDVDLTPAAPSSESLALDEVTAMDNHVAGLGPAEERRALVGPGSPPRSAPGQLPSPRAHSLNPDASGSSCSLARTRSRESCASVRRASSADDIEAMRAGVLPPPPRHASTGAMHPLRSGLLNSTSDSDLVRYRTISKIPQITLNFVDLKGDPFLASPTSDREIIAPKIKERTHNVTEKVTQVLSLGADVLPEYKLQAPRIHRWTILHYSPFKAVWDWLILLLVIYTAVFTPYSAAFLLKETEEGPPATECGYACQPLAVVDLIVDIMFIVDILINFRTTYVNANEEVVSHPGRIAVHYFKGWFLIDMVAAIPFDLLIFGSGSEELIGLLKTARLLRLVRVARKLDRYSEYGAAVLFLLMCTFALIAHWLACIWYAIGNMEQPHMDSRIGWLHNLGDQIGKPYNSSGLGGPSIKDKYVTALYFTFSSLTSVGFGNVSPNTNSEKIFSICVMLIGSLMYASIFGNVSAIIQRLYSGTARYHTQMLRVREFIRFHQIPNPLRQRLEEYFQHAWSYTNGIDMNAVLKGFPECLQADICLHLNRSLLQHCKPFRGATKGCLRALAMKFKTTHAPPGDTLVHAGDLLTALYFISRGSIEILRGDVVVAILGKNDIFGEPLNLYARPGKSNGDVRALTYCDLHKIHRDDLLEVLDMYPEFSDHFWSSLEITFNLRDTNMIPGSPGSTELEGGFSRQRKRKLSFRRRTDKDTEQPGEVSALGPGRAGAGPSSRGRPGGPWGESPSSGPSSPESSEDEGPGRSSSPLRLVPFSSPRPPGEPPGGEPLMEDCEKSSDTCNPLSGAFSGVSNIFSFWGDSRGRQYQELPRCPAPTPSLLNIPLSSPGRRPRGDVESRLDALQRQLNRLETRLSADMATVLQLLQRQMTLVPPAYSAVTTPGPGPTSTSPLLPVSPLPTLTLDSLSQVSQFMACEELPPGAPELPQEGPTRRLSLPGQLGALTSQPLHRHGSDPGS
# Chain of Receptor-interacting serine/threonine-protein kinase 1 (Mus musculus) (Q60855 whole entry): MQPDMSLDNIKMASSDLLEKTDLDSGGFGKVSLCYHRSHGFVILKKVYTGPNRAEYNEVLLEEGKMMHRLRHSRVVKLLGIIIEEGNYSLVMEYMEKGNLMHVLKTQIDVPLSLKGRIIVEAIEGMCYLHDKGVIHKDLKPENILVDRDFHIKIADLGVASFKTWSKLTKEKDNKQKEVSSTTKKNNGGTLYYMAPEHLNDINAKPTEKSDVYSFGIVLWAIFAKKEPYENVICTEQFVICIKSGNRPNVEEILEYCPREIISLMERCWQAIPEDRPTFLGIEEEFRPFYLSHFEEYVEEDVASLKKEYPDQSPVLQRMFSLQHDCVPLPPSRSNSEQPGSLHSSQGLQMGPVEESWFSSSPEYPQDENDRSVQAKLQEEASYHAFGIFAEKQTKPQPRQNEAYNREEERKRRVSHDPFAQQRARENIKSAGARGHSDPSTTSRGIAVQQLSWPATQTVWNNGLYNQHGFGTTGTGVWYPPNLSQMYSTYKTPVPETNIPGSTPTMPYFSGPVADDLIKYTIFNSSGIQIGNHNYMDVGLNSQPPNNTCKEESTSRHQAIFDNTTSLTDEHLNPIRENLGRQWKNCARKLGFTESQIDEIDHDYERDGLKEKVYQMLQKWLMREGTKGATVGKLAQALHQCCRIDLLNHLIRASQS
# Chain of Cytochrome P450 3A5 (P20815 whole entry): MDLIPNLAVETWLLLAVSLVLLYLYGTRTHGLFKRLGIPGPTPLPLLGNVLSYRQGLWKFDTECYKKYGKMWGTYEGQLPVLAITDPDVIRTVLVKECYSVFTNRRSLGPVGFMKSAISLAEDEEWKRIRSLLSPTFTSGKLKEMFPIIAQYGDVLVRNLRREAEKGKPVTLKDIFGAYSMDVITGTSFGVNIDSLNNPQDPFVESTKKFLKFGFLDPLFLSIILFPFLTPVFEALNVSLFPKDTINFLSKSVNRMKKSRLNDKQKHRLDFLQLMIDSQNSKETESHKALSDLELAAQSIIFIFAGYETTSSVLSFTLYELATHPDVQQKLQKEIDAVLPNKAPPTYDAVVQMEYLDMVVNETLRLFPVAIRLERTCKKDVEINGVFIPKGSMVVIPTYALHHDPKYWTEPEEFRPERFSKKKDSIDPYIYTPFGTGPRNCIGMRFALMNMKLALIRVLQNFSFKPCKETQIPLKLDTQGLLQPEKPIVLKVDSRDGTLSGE
# Chain of Cytochrome P450 2B6 (P20813 whole entry): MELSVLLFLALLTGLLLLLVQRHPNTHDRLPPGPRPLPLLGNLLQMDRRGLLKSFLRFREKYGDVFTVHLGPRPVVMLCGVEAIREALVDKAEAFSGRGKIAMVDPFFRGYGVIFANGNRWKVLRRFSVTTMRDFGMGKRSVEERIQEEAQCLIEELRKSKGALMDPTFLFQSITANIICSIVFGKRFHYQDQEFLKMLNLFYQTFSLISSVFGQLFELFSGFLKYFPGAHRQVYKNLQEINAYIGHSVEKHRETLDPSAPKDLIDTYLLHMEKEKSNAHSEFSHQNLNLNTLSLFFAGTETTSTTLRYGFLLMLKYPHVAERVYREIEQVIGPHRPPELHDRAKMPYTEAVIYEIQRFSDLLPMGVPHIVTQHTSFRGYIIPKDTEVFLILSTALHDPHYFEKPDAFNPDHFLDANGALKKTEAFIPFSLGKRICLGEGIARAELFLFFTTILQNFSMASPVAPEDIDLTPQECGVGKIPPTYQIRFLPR
# Chain of Cytochrome P450 2C19 (P33261 whole entry): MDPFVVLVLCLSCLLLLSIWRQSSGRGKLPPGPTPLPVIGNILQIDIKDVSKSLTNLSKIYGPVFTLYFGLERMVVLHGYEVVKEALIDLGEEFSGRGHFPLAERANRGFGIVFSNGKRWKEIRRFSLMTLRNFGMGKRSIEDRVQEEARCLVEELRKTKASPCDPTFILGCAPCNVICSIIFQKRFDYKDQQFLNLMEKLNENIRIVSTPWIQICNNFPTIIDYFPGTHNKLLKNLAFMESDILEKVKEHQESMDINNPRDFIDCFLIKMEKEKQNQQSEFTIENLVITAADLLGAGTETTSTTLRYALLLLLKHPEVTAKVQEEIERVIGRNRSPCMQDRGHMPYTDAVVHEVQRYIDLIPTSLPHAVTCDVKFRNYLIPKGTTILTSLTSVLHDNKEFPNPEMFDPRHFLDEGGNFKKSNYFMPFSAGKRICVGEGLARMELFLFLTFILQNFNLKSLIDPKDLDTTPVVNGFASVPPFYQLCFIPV
# Chain of Cytochrome P450 2D6 (P10635 whole entry): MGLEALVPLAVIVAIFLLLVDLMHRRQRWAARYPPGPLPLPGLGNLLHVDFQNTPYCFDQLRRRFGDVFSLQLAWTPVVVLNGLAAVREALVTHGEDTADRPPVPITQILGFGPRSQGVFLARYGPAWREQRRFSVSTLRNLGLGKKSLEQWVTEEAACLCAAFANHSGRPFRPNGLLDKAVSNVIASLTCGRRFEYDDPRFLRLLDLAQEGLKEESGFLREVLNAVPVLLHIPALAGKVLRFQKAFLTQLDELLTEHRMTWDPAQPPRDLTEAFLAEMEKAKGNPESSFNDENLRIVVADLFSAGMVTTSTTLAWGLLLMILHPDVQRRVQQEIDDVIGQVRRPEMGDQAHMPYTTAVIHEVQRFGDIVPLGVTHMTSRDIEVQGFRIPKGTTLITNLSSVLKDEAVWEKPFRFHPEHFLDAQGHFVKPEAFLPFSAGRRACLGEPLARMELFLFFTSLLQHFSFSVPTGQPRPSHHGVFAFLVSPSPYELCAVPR
smiles,measurement,setting,value
Cc1cc(F)cc(Nc2ncc(Nc3ccc(SC(F)(F)F)cc3)cc2C(N)=O)c1,IC50,[1],> 10 µM
same,Activity,[2],Active
same,Activity,[3],Active
same,Activity,[4],Active
same,Activity,[5],inactive
same,inhibition,[6],Dose-dependent-effect
same,Activity,[7],Active
same,Activity,[8],inactive
same,IC50,[9],5.2 µM
same,Activity,[10],Active
same,inhibition,[11],Active
same,CLH,[12],7 µL/min/mg
same,Activity,[13],Active
same,Activity,[14],Active
same,Activity,[15],Toxic
same,Activity,[16],inactive
same,Activity,[17],inactive
same,Activity,[18],Active
same,IC50,[19],> 10 µM
same,half-life,[20],13.3 h
same,Fu,[21],0.1%
same,IC50,[22],> 20 µM
same,half-life at 1 µM,[23],3.22 h
same,Activity,[24],Active
same,Activity,[25],Active
same,Activity,[26],Active; Activity More Potent Than Nec-1
same,IC50,[27],8.3 µM
same,Activity,[28],inactive
same,Activity,[29],inactive
same,IC50,[30],> 10 µM
